In patent US8580732B2, “Peptide therapy for hyperglycemia” (Duke University, priority 2009, dated 2013):

Columns and labels:
Assay type in all cases: cell-based
primary rat islets [1] = assay: Glucose-stimulated insulin secretion (GSIS), static incubation, primary rat islets; settings: 16.7 mM Glc
Description: (§1) 832/3 and 832/13 cells derived from the parental INS-1 cell line were cultured as previously described (REF-Hohmeier/Wolheim). Pancreatic islets were isolated from male Sprague-Dawley rats according to standard procedures (See, e.g., Ronnebaum et al., (2006) J. Biol. Chem. 281: 30593-30602). For cell culture experiments, TLQP-21 was purchased from Phoenix Pharmaceuticals. For animal studies, TLQP-21 was synthesized by GenScript Corporation. AQEE-30 was a kind gift of Dr. Yun-Ping (Merck Research Laboratories).
Human VGF cDNA was purchased from Open Biosystems and subcloned into pAC.CMV using PCR engineered restriction sites. Recombinant adenovirus was generated as previously described (REF). Adenoviruses expressing Nkx6.1, Pdx-1, GFP, beta-galactosidase have been described elsewhere (REF). […]
Islets: 3 groups of 20 islets were washed with phosphate-buffered saline (PBS) and incubated in secretion assay buffer (SAB; 114 mM NaCl, 4.7 mM KCl, 1.2 mM […], 1.16 mM MgSO4, 25 mM HEPES pH 7.2, 2.5 mM CaCl2, 0.2% bovine serum albumin (Gibco), 25.5 mM NaHCO3) containing 2.5 mM Glc for 1 hr at 37° C. […] Islets were lysed in RIPA buffer containing 5 mM EDTA and total protein determined by BCA (Pierce). Insulin was measured from SAB using the Coat-a-Count kit (Siemens). Insulin content was determined from a 1:100 dilution of total protein.

isolated rat islets = assay: Etoposide-induced apoptosis, Annexin V staining by flow cytometry, isolated rat islets; settings: 72 hr
Description: Pools of 50 islets were treated with DMSO, etoposide (0.2 mM) or camptothecin (10 μM) for 72 hrs as indicated. Islets were co-incubated with peptide (50 nM TLQP-21, 50 nM exendin-4), H89 (concentration), and/or LY294002 (concentration) where indicated. Islets were dispersed using 0.05% trypsin/EDTA (Sigma) diluted 1:1 with cell dissociation buffer (Sigma) for 5-10 min at 37 C following gentle pipetting. Islets were recovered by centrifugation and stained with FITC-conjugated Annexin V and propidium iodide (Roche) according to the manufacturer's specifications. Data were collected using a FACScan analyzer and analyzed using WinMDI 2.9 software.

primary rat islets [2] = assay: cAMP level determination in primary rat islets; settings: 16.7 mM Glc, 30 min, TLQP-21 50 nM, exendin-4 20 nM, relative to untreated control
Description: Primary rat islets and 832/3 cells were prepared as stated for insulin secretion measurements except the incubation at stimulatory glucose was for 30 min in the presence of 0.1 mM isobuytlmethylxanthine (IBMX). Rat islets were rapidly transferred to 0.2 mL of ice-cold 80% ethanol and stored at −80° C. until assayed. Samples were evaporated to dryness and assayed using the cAMP EIA kit from Biomedical Technologies, Inc. using acetylation protocol. For 832/3 cells, the secretion buffer was removed and rapidly replaced with 0.5 mL of 80% ethanol. Cells were stored at −80° C. until assayed. 0.2 mL of sample was evaporated to dryness and assayed for cAMP using the non-acetylation protocol.

832/3 cells = assay: Glucose-stimulated insulin secretion (GSIS), static incubation, 832/3 cells; settings: 12 mM Glc, concentrations that augment insulin release in rat islets
Description: as §1
832/3 cells were plated in triplicate per condition in 12-well dishes and assayed at confluence. Cells were washed in SAB buffer and pre-incubated for 1.5 hr in SAB containing 2.5 mM Glc. Insulin was collected by static incubation in SAB containing 2.5 mM Glc for 2 hrs at 37° C. (basal) followed by incubation in SAB containing 12 mM Glc for 2 hrs (stimulatory). Secretagogues (20 nM exendin-4, TLQP-21, AQEE-30) were added where indicated. Cells were washed in PBS, collected by centrifugation, and lysed in 50 uL RIPA containing 5 mM EDTA. Total protein was determined by BCA (Pierce). Insulin was measured from SAB using the Coat-a-Count kit (Siemens). Insulin content was determined from a 1:500 dilution of total protein.

What does the source list for exendin-4?
enhancement of GSIS (primary rat islets [1]; 20 nM): 1.8 fold; protection against etoposide-mediated apoptosis (isolated rat islets; co-culture with etoposide 0.2 mM): comparable level of protection; increase in cAMP levels (primary rat islets [2]): ~3 fold

Which results are given for “AQEE-30: second C-terminal VGF peptide; SEQ ID NO:14 is rat AQEE-30 polypeptide (AQARRAQEEADAEERRLQEQEELENYIEHVLLHRP; listed as Rattus norvegicus)”?
ability to potentiate GSIS (primary rat islets [1]): unable to augment GSIS; ability to potentiate GSIS (832/3 cells): unable to augment GSIS

What does the source list for COc1cc([C@@H]2c3cc4c(cc3[C@@H](O[C@@H]3O[C@@H]5CO[C@@H](C)O[C@H]5[C@H](O)[C@H]3O)[C@H]3COC(=O)[C@H]23)OCO4)cc(OC)c1O [etoposide]?
increase in Annexin V positive cells over untreated (DMSO) control (isolated rat islets; etoposide 0.2 mM alone): 18%; islet cells staining positive for Annexin V (isolated rat islets; etoposide 0.2 mM alone): 35%
